From patent US20100075370A1, “METHOD FOR DETERMINATION OF CELL VIABILITY BY USING FLOW CYTOMETRY WITH FIXED VOLUME ACQUISITION” (TUMORTEC GMBH, priority 2006, published 2010)

Tested on: pBMC from patients with CLL
Test: Cytotoxicity of several antineoplastic agents on pBMC (LC90), fixed volume flow cytometry
Format: cell-based, human
Settings: in µg/mL
Description: The necessary peripheral blood (PB) samples from adult patients diagnosed with chronic lymphatic leukaemia (CLL) were collected into heparin during routine diagnosis prior to administration of chemotherapy.

[1] = pBMC of CLL patient #1, ex vivo
[2] = pBMC of CLL patient #2, ex vivo
[3] = pBMC of CLL patient #3, ex vivo
[4] = pBMC of CLL patient #4, ex vivo
[5] = pBMC of CLL patient #5, ex vivo
[6] = pBMC of CLL patient #6, ex vivo
[7] = pBMC of CLL patient #7, ex vivo
[8] = pBMC of CLL patient #8, ex vivo
[9] = pBMC of CLL patient #9, ex vivo
[10] = pBMC of CLL patient #10, ex vivo
[11] = pBMC of CLL patient #11, ex vivo
[12] = pBMC of CLL patient #12, ex vivo
[13] = pBMC of CLL patient #13, ex vivo
[14] = pBMC of CLL patient #14, ex vivo
[15] = pBMC of CLL patient #15, ex vivo
[16] = pBMC of CLL patient #16, ex vivo
[17] = pBMC of CLL patient #17, ex vivo
[18] = pBMC of CLL patient #18, ex vivo
[19] = pBMC of CLL patient #19, ex vivo
[20] = pBMC of CLL patient #20, ex vivo
[21] = pBMC of CLL patient #21, ex vivo
[22] = pBMC of CLL patient #22, ex vivo
[23] = pBMC of CLL patient #23, ex vivo
[24] = pBMC of CLL patient #24, ex vivo
[25] = pBMC of CLL patient #25, ex vivo

Nc1nc(Cl)nc2c1ncn2[C@H]1C[C@H](O)[C@@H](CO)O1 [Cladribine ®, Cladribine]
LC90 [1]: 0.185 | LC90 [2]: 0.184 | LC90 [3]: 0.159 | LC90 [4]: 0.107 | LC90 [5]: 0.083 | LC90 [6]: 0.080 | LC90 [7]: 0.063 | LC90 [8]: 0.059 | LC90 [9]: 0.052 | LC90 [10]: 0.048 | LC90 [11]: 0.047 | LC90 [12]: 0.040 | LC90 [13]: 0.029 | LC90 [14]: 0.027 | LC90 [15]: 0.024 | LC90 [16]: 0.017 | LC90 [17]: 0.015 | LC90 [18]: 0.013 | LC90 [19]: 0.007 | LC90 [20]: 0.006 | LC90 [21]: 0.005 | LC90 [22]: 0.004 | LC90 [23]: 0.000 | LC90 [24]: 8.100 | LC90 [25]: 1.967

O=C1c2c(O)ccc(O)c2C(=O)c2c(NCCNCCO)ccc(NCCNCCO)c21 [Novantrone ®, Mitoxantrone]
LC90 [1]: 0.06 | LC90 [2]: 0.03 | LC90 [3]: 0.19 | LC90 [4]: 0.15 | LC90 [5]: 0.11 | LC90 [6]: 13.37 | LC90 [7]: 0.14 | LC90 [8]: 0.02 | LC90 [9]: 0.10 | LC90 [10]: 0.05 | LC90 [11]: 12.80 | LC90 [12]: 0.06 | LC90 [13]: 0.40 | LC90 [14]: 0.09 | LC90 [15]: 0.05 | LC90 [16]: 0.01 | LC90 [17]: 0.03 | LC90 [18]: 0.08 | LC90 [19]: 0.07 | LC90 [20]: 0.02 | LC90 [21]: 0.05 | LC90 [22]: 0.05 | LC90 [23]: 0.01 | LC90 [24]: 12.77 | LC90 [25]: 0.17

CC[C@]1(O)C[C@H]2CN(CCc3c([nH]c4ccccc34)[C@@](C(=O)OC)(c3cc4c(cc3OC)N(C=O)[C@H]3[C@@](O)(C(=O)OC)[C@H](OC(C)=O)[C@]5(CC)C=CCN6CC[C@]43[C@@H]65)C2)C1 [Oncovin ®, Vincristin]
LC90 [1]: 2.51 | LC90 [2]: 0.47 | LC90 [3]: 0.14 | LC90 [4]: 10.96 | LC90 [5]: 0.33 | LC90 [6]: 0.07 | LC90 [7]: 0.88 | LC90 [8]: 10.23 | LC90 [9]: 0.47 | LC90 [10]: 0.41 | LC90 [11]: 0.21 | LC90 [12]: 0.97 | LC90 [13]: 0.24 | LC90 [14]: 0.04 | LC90 [15]: 0.44 | LC90 [16]: 0.13 | LC90 [17]: 0.41 | LC90 [18]: 0.70 | LC90 [19]: 0.10 | LC90 [20]: 0.42 | LC90 [21]: 0.10 | LC90 [22]: 0.30 | LC90 [23]: 0.08 | LC90 [24]: 61.57 | LC90 [25]: 0.23

C[C@]12C=CC(=O)C=C1CC[C@@H]1[C@@H]2[C@@H](O)C[C@@]2(C)[C@H]1CC[C@]2(O)C(=O)CO [Prednisolone ®, Prednisolone]
LC90 [1]: 40.69 | LC90 [2]: 21.96 | LC90 [3]: 12.17 | LC90 [4]: 2.25 | LC90 [5]: 12.67 | LC90 [6]: 0.88 | LC90 [7]: 35.35 | LC90 [8]: 29.81 | LC90 [9]: 33.00 | LC90 [10]: 11.71 | LC90 [11]: 0.46 | LC90 [12]: 0.86 | LC90 [13]: 2.56 | LC90 [14]: 0.56 | LC90 [15]: 0.82 | LC90 [16]: 0.19 | LC90 [17]: 35.69 | LC90 [18]: 0.51 | LC90 [19]: 0.98 | LC90 [20]: 99.92 | LC90 [21]: 0.54 | LC90 [22]: 12.76 | LC90 [23]: 0.82 | LC90 [24]: 48.18 | LC90 [25]: 0.48
